As a reminder, the inhibition is the percentage by which the read-out fell short of the control. Broadly, the IC50 is the concentration at which inhibition is half-maximal.

The record followed here is ChEMBL document CHEMBL1144535, “3D pharmacophore based virtual screening of T-type calcium channel blockers” (Bioorg Med Chem, 2007).

Active and inactive are the calls of the source. The rule behind the calls is not given here.

Format in all cases: cell-based
The target in test [1] is Voltage-dependent T-type calcium channel subunit alpha-1H (Homo sapiens) (UniProt O95180). As to the kind of experiment: Inhibition of alpha-1H T-type calcium channel Cav3.2 expressed in Xenopus unfertilized oocytes at 100 uM by two-electrode voltage clamp method. The note with it: Oocyte. In general terms: Two-electrode voltage clamp is typically applied to oocytes expressing channels or transporters.
Sequence of Voltage-dependent T-type calcium channel subunit alpha-1H (Homo sapiens) (O95180 whole entry): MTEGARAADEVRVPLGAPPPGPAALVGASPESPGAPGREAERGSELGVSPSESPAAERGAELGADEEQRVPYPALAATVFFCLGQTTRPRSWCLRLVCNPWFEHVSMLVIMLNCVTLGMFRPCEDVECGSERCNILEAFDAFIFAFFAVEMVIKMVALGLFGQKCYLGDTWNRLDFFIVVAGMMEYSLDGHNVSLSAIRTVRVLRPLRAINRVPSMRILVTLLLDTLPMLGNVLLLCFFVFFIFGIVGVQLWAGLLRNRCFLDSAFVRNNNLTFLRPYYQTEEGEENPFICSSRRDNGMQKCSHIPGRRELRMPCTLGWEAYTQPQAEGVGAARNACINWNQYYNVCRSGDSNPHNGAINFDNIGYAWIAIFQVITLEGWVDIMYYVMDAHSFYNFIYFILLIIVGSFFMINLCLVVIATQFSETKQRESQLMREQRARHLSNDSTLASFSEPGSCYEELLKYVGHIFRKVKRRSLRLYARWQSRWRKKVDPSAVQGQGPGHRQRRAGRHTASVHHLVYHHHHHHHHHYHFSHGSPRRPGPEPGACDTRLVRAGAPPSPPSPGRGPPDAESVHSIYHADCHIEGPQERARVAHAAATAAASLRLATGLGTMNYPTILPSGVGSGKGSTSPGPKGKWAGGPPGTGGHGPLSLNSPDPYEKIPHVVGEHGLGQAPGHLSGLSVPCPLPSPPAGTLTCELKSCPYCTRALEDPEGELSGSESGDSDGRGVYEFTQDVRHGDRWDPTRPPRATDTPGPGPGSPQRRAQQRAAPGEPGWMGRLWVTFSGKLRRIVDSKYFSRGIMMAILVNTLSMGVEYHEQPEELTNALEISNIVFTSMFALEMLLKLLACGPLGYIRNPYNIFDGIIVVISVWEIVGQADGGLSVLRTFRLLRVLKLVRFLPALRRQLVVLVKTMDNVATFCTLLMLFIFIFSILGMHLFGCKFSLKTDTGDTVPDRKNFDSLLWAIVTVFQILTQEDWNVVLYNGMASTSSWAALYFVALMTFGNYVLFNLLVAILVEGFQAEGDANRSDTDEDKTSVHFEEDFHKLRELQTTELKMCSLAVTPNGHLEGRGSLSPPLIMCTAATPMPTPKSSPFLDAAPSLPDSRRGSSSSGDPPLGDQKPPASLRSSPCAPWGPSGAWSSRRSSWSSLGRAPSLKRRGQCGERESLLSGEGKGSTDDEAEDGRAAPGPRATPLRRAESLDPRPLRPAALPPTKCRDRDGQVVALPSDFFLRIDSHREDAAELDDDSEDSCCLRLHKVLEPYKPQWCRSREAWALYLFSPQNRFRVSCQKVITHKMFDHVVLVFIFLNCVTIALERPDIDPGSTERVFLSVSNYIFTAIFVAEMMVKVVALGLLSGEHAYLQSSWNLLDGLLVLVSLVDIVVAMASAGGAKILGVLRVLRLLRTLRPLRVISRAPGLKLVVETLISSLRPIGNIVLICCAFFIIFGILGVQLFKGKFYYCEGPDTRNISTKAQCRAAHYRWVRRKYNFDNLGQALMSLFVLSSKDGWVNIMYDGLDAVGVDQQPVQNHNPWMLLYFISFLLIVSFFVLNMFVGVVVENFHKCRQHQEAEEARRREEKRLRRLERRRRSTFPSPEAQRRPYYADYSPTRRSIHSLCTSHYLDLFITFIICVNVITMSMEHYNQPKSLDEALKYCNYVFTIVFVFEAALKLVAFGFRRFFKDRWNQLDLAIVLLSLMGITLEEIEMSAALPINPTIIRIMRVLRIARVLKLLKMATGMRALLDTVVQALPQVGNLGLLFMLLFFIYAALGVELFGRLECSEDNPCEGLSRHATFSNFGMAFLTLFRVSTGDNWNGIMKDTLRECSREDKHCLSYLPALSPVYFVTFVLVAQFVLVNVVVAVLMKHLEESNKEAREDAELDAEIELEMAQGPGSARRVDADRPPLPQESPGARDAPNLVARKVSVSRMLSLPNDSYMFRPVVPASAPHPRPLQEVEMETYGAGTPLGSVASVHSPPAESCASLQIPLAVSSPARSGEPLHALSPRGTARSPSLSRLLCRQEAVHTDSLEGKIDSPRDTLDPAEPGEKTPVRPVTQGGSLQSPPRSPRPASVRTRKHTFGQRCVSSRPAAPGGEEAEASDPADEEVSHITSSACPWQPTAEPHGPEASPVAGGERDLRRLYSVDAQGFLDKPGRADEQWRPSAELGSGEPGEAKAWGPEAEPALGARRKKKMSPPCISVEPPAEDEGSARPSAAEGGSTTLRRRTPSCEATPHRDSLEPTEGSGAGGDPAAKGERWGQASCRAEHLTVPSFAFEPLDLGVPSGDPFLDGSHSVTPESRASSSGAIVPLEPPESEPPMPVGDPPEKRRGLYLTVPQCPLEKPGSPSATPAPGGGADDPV

Test [2] concerns the target T1, Voltage-dependent T-type calcium channel subunit alpha-1G (Homo sapiens, UniProt O43497). Kind of test: Inhibition of alpha-1G T-type calcium channel expressed in HEK293 cells at 10 uM by electrophysiological method.
Test [3] concerns the target T1, Voltage-dependent T-type calcium channel subunit alpha-1G. Kind of test: Inhibition of alpha-1G T-type calcium channel expressed in HEK293 cells by electrophysiological method.
The nature of test [4]: Inhibition of alpha-1B N-type calcium channel expressed in HEK293 cells by electrophysiological method.

T1 sequence (O43497 whole entry): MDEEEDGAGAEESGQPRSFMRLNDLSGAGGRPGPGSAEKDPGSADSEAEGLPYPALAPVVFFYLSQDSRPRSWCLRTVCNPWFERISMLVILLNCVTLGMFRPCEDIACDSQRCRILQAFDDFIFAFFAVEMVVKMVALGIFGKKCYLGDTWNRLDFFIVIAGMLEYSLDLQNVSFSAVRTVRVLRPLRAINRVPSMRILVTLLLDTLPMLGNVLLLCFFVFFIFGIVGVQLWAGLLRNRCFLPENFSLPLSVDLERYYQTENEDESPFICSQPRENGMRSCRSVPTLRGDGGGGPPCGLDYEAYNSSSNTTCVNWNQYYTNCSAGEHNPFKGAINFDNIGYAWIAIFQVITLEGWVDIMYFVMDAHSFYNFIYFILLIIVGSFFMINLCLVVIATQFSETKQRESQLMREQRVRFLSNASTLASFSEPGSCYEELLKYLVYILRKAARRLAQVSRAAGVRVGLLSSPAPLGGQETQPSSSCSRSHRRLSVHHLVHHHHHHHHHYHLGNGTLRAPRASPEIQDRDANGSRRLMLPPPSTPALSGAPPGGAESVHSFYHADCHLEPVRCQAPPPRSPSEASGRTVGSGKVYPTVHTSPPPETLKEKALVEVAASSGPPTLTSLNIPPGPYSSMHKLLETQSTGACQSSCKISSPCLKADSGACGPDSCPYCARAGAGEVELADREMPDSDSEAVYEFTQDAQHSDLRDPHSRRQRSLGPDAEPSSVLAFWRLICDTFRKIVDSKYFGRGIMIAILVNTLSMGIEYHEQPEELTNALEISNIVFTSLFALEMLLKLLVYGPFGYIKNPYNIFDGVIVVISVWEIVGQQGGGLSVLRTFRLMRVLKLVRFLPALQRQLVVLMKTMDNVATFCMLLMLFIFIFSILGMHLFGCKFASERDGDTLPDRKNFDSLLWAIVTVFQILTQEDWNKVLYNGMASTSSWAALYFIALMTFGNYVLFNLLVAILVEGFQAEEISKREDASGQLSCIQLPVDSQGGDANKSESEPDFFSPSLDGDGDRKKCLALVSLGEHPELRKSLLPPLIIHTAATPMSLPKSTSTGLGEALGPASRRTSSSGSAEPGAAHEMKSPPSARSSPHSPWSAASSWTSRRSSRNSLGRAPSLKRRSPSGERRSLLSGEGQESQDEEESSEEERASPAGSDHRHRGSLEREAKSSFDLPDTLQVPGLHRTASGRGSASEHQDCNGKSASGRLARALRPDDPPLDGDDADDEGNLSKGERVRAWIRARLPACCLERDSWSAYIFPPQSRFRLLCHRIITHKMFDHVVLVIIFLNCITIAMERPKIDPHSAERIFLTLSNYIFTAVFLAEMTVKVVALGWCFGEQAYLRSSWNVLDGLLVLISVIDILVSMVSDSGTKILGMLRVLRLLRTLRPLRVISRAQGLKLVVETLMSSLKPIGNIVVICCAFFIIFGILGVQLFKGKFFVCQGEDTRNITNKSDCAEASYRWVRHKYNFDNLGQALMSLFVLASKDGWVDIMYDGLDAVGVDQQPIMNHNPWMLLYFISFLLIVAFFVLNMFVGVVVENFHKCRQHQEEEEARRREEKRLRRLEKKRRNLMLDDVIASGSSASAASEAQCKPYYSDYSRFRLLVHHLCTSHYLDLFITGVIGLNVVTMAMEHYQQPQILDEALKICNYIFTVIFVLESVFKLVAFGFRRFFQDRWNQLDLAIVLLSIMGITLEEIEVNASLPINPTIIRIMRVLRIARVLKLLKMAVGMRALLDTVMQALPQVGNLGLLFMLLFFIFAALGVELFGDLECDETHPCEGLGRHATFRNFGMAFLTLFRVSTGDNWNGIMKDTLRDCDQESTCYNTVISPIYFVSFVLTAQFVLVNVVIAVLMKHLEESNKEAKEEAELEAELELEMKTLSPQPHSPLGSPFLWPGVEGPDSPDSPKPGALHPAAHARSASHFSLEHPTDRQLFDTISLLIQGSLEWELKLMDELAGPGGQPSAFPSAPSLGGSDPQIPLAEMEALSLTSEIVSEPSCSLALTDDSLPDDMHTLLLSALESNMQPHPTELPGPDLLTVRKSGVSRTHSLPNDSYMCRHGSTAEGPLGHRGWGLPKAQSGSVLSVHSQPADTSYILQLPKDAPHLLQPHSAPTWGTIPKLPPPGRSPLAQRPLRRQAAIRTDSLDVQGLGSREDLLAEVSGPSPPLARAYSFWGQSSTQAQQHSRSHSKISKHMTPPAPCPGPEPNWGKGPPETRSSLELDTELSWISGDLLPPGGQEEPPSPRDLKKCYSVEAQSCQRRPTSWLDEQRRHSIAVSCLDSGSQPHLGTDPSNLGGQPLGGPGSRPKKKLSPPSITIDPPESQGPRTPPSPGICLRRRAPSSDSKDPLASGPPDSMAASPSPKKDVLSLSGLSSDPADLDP

As for `CN(c1ccc(Br)cc1)S(=O)(=O)c1ccc2[nH]cc(C(=O)N3CCN(Cc4ccccc4)CC3)c(=O)c2c1`, the inhibition in test [1] stood at 86.5%.
As to `O=C(CCN1C(=O)c2ccccc2C1=O)N1CCN(C(c2ccccc2)c2ccccc2)CC1`, in test [1], the inhibition was determined as 43.3%.
The same measure, in the same setting: then `Cc1cccc(N2CCN(CC(=O)Nc3ccc(Cl)cc3C(=O)c3ccccc3Br)CC2C)c1` (stereo not given), with 9.23%; and `O=C(NCCCN1CCN(c2ccccc2F)CC1)c1ccc(CNc2nc(=S)[nH]c3ccccc23)cc1`, with “inactive”.
As for `CN(C)CCNC(=O)c1ccc2c(=O)n(Cc3ccc(Cl)cc3)c(=S)[nH]c2c1`, the inhibition in test [2] was 43.5%. In test [3], the IC50 stood at 53500 nM.
As for `O=C(CCN1C(=O)c2ccccc2C1=O)N1CCN(Cc2ccc(Cl)cc2Cl)CC1`, in test [1], the inhibition is 12%.
Take `O=S(=O)(c1cccc2nonc12)N1CCN(C(c2ccccc2)c2ccccc2)CC1`: in test [1], the inhibition amounted to 15.2%.
Take `CCN1CCN(c2cc(C)c3cc(NC(=O)/C=C/c4cccc(Cl)c4)ccc3n2)CC1`: the result in test [1] was inactive.
With `CCCCN(C)CCNC(=O)c1ccc2c(=O)n(Cc3ccc(Cl)cc3)c(=S)[nH]c2c1`, in test [2], the inhibition was determined as 34.3%. For the same compound, in test [3], the IC50 was determined as 11400 nM.
For the compound `CCN(CC)CCOC(=O)c1ccc(N/C=C2/C(=O)NC(=O)N(CCc3ccccc3)C2=O)cc1`, the result in test [1] was inactive.
As for `CN1CCN(C(=O)c2ccc3c(=O)n(Cc4ccc(Cl)cc4)c(=S)[nH]c3c2)CC1`, in test [2], the inhibition is 51.4%. The half-maximal inhibitory concentration (IC50) in test [3] came out at 11400 nM.
With `O=C(CCC(=O)Nc1nc(-c2cc3cc(Cl)ccc3oc2=O)cs1)NCCCN1CCCC1`, in test [1], the inhibition came out at 43.9%.
Same read-out and setting: for `O=[N+]([O-])c1ccccc1S(=O)(=O)N1CCN(Cc2ccccc2Cl)CC1` the value was 7.57%.
Regarding `Cc1ccc(N2CCN(CCNCc3cc(-c4ccccc4C(F)(F)F)no3)CC2)c(C)c1`, in test [3], the IC50 came out at 1530 nM.
Turning to `O=C(CSC1CN(C(c2ccccc2)c2ccccc2)C1)NNC(=O)c1ccc(Cl)cc1`, the inhibition in test [1] came out at 28.3%.
Turning to `FC(F)(F)c1cccc(N2CCN(CCNCc3cc(-c4ccccc4C(F)(F)F)no3)CC2)c1`, the IC50 in test [3] was determined as 1020 nM.
In the case of `CN(CCCNC(=O)c1ccc2c(=O)n(Cc3ccc(Cl)cc3)c(=S)[nH]c2c1)Cc1ccccc1`, the inhibition in test [2] amounted to 37.5%. Further, the IC50 in test [3] was 4690 nM.
As to `CCN(CC)CCNC(=O)c1cn(-c2ccc(Cl)cc2)c(=O)c2ccccc12`, the inhibition in test [1] amounted to 13%.
In the case of `O=C(NC1CCN(Cc2ccccc2)CC1)c1ccc2c(=O)n(Cc3ccc(Cl)cc3)c(=S)[nH]c2c1`, in test [1], the outcome was inactive.
As to `CCOC(=O)c1c(C)n(Cc2ccccc2)c2ccc(OCC(O)CN3CCN(Cc4ccccc4)CC3)cc12` (stereo not given), the inhibition in test [1] amounted to 8.83%.
As for `CCN(CC)CCNC(=O)c1ccc(NC(=O)c2cn(CC)c3nc(C)ccc3c2=O)cc1`, the inhibition in test [1] stood at 41.9%.
On to `COC(=O)c1ccc2c(=O)n(Cc3ccc(C(=O)N4CCC(N5CCCCC5)CC4)cc3)c(=S)[nH]c2c1`, for which, in test [1], the inhibition was determined as 10.3%.
`CCC1CCCCN1CCCNC(=O)c1ccc2c(=O)n(Cc3ccc(Cl)cc3)c(=S)[nH]c2c1` (stereo not given): the IC50 in test [4] came out at 2100 nM. The inhibition in test [2] is 88.3%; in test [1], 98.3%.
Turning to `COc1ccccc1-c1cc(CNCCN2CCN(c3cccc(C(F)(F)F)c3)CC2)on1`, the IC50 in test [3] came to 2040 nM.
As for `O=C1CC(N2CCN(C(c3ccc(F)cc3)c3ccc(F)cc3)CC2)C(=O)N1c1ccc(Cl)cc1` (stereo not given), the inhibition in test [1] came out at 51.8%.
In the case of `O=C(CN1CCN(C2c3ccccc3-c3ccccc32)CC1)Nc1cc(C(F)(F)F)ccc1Cl`, in test [1], the result was inactive.
With `O=C(NCCCN1CCCCCC1)c1ccc2c(=O)n(Cc3ccc(Cl)cc3)c(=S)[nH]c2c1`, the IC50 turned out to be 5800 nM in test [4] and 1410 nM in test [3]. For the same compound, the inhibition in test [2] was 85.4%.
Regarding `O=C(NCCCN1CCOCC1)c1ccc2c(=O)n(-c3cccc(C(F)(F)F)c3)c(=S)[nH]c2c1`, the inhibition in test [1] was 15.9%.
The same measure, in the same setting: then `O=C(NCCCN1CCOCC1)c1ccc2c(=O)n(Cc3ccccc3)c(=S)[nH]c2c1`, with 15.9%; and `O=C(NCCCn1ccnc1)c1ccc2c(=O)n(-c3ccccc3)c(=S)[nH]c2c1`, with 2.47%.
For the compound `CC1CCN(CCCNC(=O)c2ccc3c(=O)n(Cc4ccc(Cl)cc4)c(=S)[nH]c3c2)CC1`, the IC50 is 6400 nM in test [4] and 1100 nM in test [3]. Also, the inhibition in test [2] was 89.2%.
As for `CCOC(=O)c1cc2c(c(CSc3nc4ccccc4c(=O)n3CCCN3CCCCC3)c1)OCOC2`, the inhibition in test [1] was 35.3%.
Consider `CCOC(=O)c1c(NC(=O)c2ccc(S(=O)(=O)N(C)c3ccccc3)cc2)sc2c1CCN(CC)C2`, for which the inhibition in test [1] came out at 22%.
Regarding `O=C(NCCCN1CCCCC1)c1ccc2c(=O)n(Cc3ccc(Cl)cc3)c(=S)[nH]c2c1`, the IC50 in test [4] is 8100 nM; in test [3], 2080 nM. The inhibition in test [2] is 34.3%; in test [1] it was 72.9%.
Consider `COC(=O)c1ccc(S(=O)(=O)N2CCN(C(c3ccccc3)c3ccccc3)CC2)n1C`, for which the outcome in test [1] was inactive.
As for `CC1CCN(CCCNC(=O)c2ccc(Cn3c(=S)[nH]c4ccc(Br)cc4c3=O)cc2)CC1`, in test [1], the inhibition was 62.6%.
Same read-out and setting: for `O=S(=O)(c1ccccc1)N(CC(O)CN(Cc1ccccc1)Cc1ccccc1)c1ccccc1` (stereo not given) the value was 15.2%; for `Cc1ccc(C(=O)Oc2ccc(NC3=NS(=O)(=O)c4ccccc43)cc2CN2CCCCC2)cc1`, 13.5%.
Turning to `O=C1CC(N2CCN(C(c3ccc(F)cc3)c3ccc(F)cc3)CC2)C(=O)N1c1ccc(Br)cc1` (stereo not given), in test [1], the inhibition amounted to 37.1%.
The same measure, in the same setting: then `O=C(CN(c1cccc([N+](=O)[O-])c1)S(=O)(=O)c1ccccc1)N1CCN(Cc2ccccc2)CC1`, with 42.5%.
With `O=C(NCCCN1CCCC1)c1ccc2c(=O)n(Cc3ccc(Cl)cc3)c(=S)[nH]c2c1`, the values for the IC50 in test [4] and in test [3] were 17200 nM and 1160 nM, respectively. The inhibition came out at 85.4% in test [2] and 84.1% in test [1].
Regarding `CC1CCN(CCNC(=O)c2ccc(-n3c(=S)[nH]c4ccccc4c3=O)cc2)CC1`, in test [1], the outcome was inactive.
Turning to `OC(CN1CCN(C(c2ccccc2)c2ccccc2)CC1)Oc1cccc(C(F)(F)F)c1` (stereo not given), the inhibition in test [1] turned out to be 58.3%.
On the same count and under the same terms, for `O=C1CC(N2CCN(C(c3ccccc3)c3ccc(Cl)cc3)CC2)C(=O)N1c1cccc(Cl)c1` (stereo not given) the value was 16.6%.
Regarding `CCN1C(N2CCCCC2)=Nc2ccccc2C1CC(=O)NCc1ccc(NS(=O)(=O)c2ccc(C)cc2)cc1` (stereo not given), in test [3], the IC50 turned out to be 960 nM.
Take `FC(F)(F)c1cccc(N2CCN(Cn3nc(-c4ccccc4)n(-c4ccccc4)c3=S)CC2)c1`: the inhibition in test [1] was determined as 11.4%.
For the compound `CCN(CC)CCOC(=O)c1ccc(NC(=O)c2cc3ccccc3o2)cc1`, the inhibition in test [1] came out at 34.4%.
Still for that read-out and setting: then `CCN(CC)CCNC(=O)c1ccc(CNc2nc(=S)[nH]c3ccccc23)cc1`, with 9.54%.
Regarding `O=C(NCCCn1ccnc1)c1ccc2c(=O)n(-c3ccc(F)c(Cl)c3)c(=S)[nH]c2c1`, in test [1], the outcome was inactive.
With `Cc1ccc(CSc2nc3cc(C(=O)NCCCN4CCOCC4)ccc3c(=O)n2-c2ccc(F)cc2)cc1`, the result in test [1] was inactive.
With `O=C(CN1CCN(C(c2ccccc2)c2ccccc2)CC1)NCc1ccc2c(c1)OCO2`, the inhibition in test [1] amounted to 12.5%.
In the case of `CCN1CCN(CCCNC(=O)c2ccc3c(=O)n(Cc4ccc(Cl)cc4)c(=S)[nH]c3c2)CC1`, the concentration for half-maximal inhibition (IC50) in test [4] amounted to 7100 nM; in test [3], 2530 nM. The inhibition in test [2] worked out at 78.9%.
In the case of `CN(CCCNC(=O)c1ccc(-n2c(=S)[nH]c3ccc(Br)cc3c2=O)cc1)Cc1ccccc1`, in test [1], the inhibition turned out to be 25.7%.
In the case of `COc1ccccc1-c1cc(CNCCN2CCN(c3ccc(C)cc3C)CC2)on1`, the IC50 in test [3] amounted to 2020 nM.
With `O=C(O)c1ccc2c(=O)n(Cc3ccc(CNCCCN4CCN(c5cccc(Cl)c5)CC4)cc3)c(=S)[nH]c2c1`, the inhibition in test [1] was found to be 11.4%.
As to `O=C1c2ccccc2C(=O)N1CCCN1CCN(Cc2c(F)cccc2Cl)CC1`, the inhibition in test [1] is 8.1%.
Regarding `COc1cccc(NC2=C3C(=O)c4ccccc4C4ON=C(C(N5CCN(Cc6cc(Cl)ccc6OC)CC5)=C2)C34)c1` (stereo not given), the inhibition in test [1] amounted to 16.1%.
Same read-out and setting: for `CCN(CC)CCNC(=O)C1c2ccccc2C(=O)N(Cc2ccc(F)cc2)C1c1ccc(OC)cc1` (stereo not given) the value was 52.2%.
On the same count and under the same terms, then `O=C1CC(N2CCN(C(c3ccccc3)c3ccccc3)CC2)C(=O)N1c1ccc(Cl)c(C(F)(F)F)c1` (stereo not given), with 41.8%; and `Cc1ccc(N(CC(O)CN(Cc2ccccc2)Cc2ccccc2)S(=O)(=O)c2ccccc2[N+](=O)[O-])cc1` (stereo not given), with 34.7%.
As to `CC1CC(C)CN(CCCNc2ccc(C(=O)Nc3ccc(C(F)(F)F)cc3)cc2[N+](=O)[O-])C1` (stereo not given), the inhibition in test [1] was found to be 56%.
For `O=C1c2ccccc2C(=O)N1CC#CCN1CCN(C(c2ccccc2)c2ccccc2)CC1`, in test [1], the result was inactive.
